Assay results taken from patent publication US10792268B2, “Methods of sustaining dietary ketosis and its effects on lipid profile” (priority 2014, dated 2020).
Marks after values point to notes of the source that are not given here.

Assays:
Assay type in all cases: in vivo, Sprague-Dawley rats
[1] = Harvested organ weights at week 4; settings: rats, versus control; for liver weight: week 4 harvested organs
Procedure: Animals treated from Example 1 were sacrificed by CO2 between 4-8 hours after gavage-treatment at the end of 4 weeks (28 days at the dose of 5-10 g/kg), which were determined to be peak ketone elevation. Brain, Lungs, Liver, Kidneys, Spleen and Heart were harvest and weighed using AWS-1000 1 kg portable digital scale (AWS, Charleston, S.C.). Organs were then either flash frozen in liquid nitrogen or preserved in paraformaldehyde for future analysis.

[2] = Blood glucose levels after intragastric gavage of ketone supplements; settings: rats; for blood glucose levels, overall over the 4 weeks: 5 g/kg gavage daily; for blood glucose levels, week 1: FIG. 4(B)
Procedure: (§1) Adult male Sprague-Dawley rats (n=74), 275-325 grams, were obtained from Harlan, and randomly assigned to the following groups: control (water), R,S-1,3-butanediol (BD), or R,S-1,3-butanediol acetoacetate diester (KE). Rats were treated daily with 5 g/kg intragastric gavage of BD or KE for days 1-28. Animals were weighed once per week to maintain accurate dosage using the Mittler Toledo SB16001 scales. Gavage was given between 10 am-1 pm daily to eliminate variance based on regular eating patterns. Diets were not restricted for this study.
(§2) Once a week, animals were fasted, with water still available for 4 hours prior to intragastric gavage to eliminate blood glucose and ketone variance of regular eating habits. Whole blood samples (10 μl) were acquired from the saphenous vein for analysis of glucose and βHB utilizing the commercially available glucose and ketone monitoring system Precision Xtra™ (Abbott Laboratories, Abbott Park, Ill.) at time 0, 0.5, 1, 4, 8, and 12 hours after test substance administration, or until βHB returned to baseline. On Day 0 (Week 0) and Day 28 (Week 4), whole blood samples (10 μL) were acquired for analysis of total cholesterol, HDL, and triglycerides for a lipid panel utilizing the commercially available home cholesterol analyzer Cardio Chek™ (Polymer Technology Systems, Inc., Indianapolis, Ind.) at time 0.

[3] = Lipid panel (total cholesterol, HDL, triglycerides) at week 0 and week 4; settings: rats, after 4-week chronic dosage, 5 g/kg
Procedure: as §1, §2

[4] = Global metabolic profiling of serum and hippocampus (GC/MS and LC/MS/MS) after 28-day treatment; settings: rats
Procedure: Rats were treated as described in Example 1, and brain and serum samples were extracted and prepared for analysis using a standard solvent extraction method (Metabolon Inc., Durham, N.C.) at 28 days after initiation of treatment. The extracted samples were split into equal parts for analysis on the GC/MS and LC/MS/MS platforms. Instrument variability was determined by calculating the median relative standard deviation (RSD) for the internal standards that were added to each sample prior to injection into the mass spectrometers.
A total of 388 and 290 compounds were identified in serum and hippocampus samples, respectively. […] The less robust changes in the hippocampal tissue may have been due to the time frame needed to dissect the hippocampal tissue from the brain prior to flash freezing (2-4 minutes). Random Forest (RF) is a supervised classification technique reporting on the consensus of a large number of decision trees. In this study, the serum and hippocampus profiles of animals subjected to different dietary treatments were classified in order to: 1) assess the capacity to distinguish between dietary treatment on the basis of global metabolic profiles and 2) identify biochemicals important to the classification. A classification accuracy of 33% is expected by random chance when comparing three groups. For this study, classification of serum and hippocampus samples was 100% and 83% accurate, respectively, in correctly categorizing samples into their proper groups. […] In serum, the biochemical key to classifying the groups included biomarkers related to ketones, energy metabolites, medium-chain fatty acids, and ketones were key factors for hippocampal group classification.

[5] = Change of body weight over 4 weeks of ketone supplementation; settings: rats, 5 g/kg gavage daily, weekly weighing over 4 weeks
Procedure: as §1
Animal weights were obtained weekly (Mittler Toledo SB16001 scales).

hepatocyte cell nuclei = assay: Liver histology (H&E stain) after 28 days of ketone supplementation; settings: for fat deposits in liver sections / hepatocyte nucleus number, maximum / hepatocyte nucleus number, minimum / number of RBCs and capillaries in liver sections compared to control / hepatocyte nucleus number, average: rats, 28 days gavage at maximum tolerable dose (5-10 g/kg); for number of RBCs and capillaries in liver sections compared to control: data not shown; for hepatocyte nucleus number, average: minimum 5 images/animal, 5 animals/group; for hepatocyte nucleus number, significance (p, unpaired t-test versus control): significant if p < 0.05
Procedure: Livers from rats administered maximum tolerable dose of ketone supplementation were assessed via histology. The livers from rats treated 4-weeks with ketone supplementation appeared normal in color, size and texture in all groups upon harvesting. The livers were sectioned for histology and stained with Hematoxylin and Eosin (H&E stain), and analyzed by a trained pathologist to assess histopathological changes, including changes in liver cytoarchitecture, presence of steatosis, steatofibrosis, cell nuclei density, capillary density, presence of red blood cells (RBCs) and signs of inflammatory processes (e.g. macrophages).
The representative images are liver sections of Sprague-Dawley that were gavaged daily with water; 1,3-butanediol (BD); Ketone Ester (KE);) for 28 days at the maximum tolerable dose (5-10 g/kg). […] It should be noted that 1,3-butanediol has alcohol-like properties and requires hepatocytes to enzymatically metabolize the di-alcohol through cytosolic alcohol dehydrogenase and the induction of cytochrome p450 enzymes for conversion to βHB. The processes are associated with an increase in liver metabolism and blood flow, possibly resulting in greater number of RBCs and capillaries. There was also a modest, but statistically significant increase in hepatocyte cell nuclei, seen in Table 2, although no indications of liver damage, inflammation, fibrosis or presence of Mallory-Denk bodies were observed.

[6] = Blood ketone (βHB) levels after intragastric gavage of ketone supplements; settings: rats; for duration of elevated blood ketones (starting at 30 min): 5 g/kg for all four weeks
Procedure: as §1, §2

[7] = 5 g/kg gavage, FIG. 3 (text: week 6; legend: week 4)

SMILES | liver weight [1] | blood glucose levels, overall over the 4 weeks [2] | blood glucose levels, week 1 ([2]; 5 g/kg gavage) | Triglyceride levels at week 4 [3] | body weight increase versus control [5] | fat deposits in liver sections (hepatocyte cell nuclei) | hepatocyte nucleus number, maximum (hepatocyte cell nuclei) | hepatocyte nucleus number, minimum (hepatocyte cell nuclei) | number of RBCs and capillaries in liver sections compared to control (hepatocyte cell nuclei) | hepatocyte nucleus number, average (hepatocyte cell nuclei) | hepatocyte nucleus number, significance (p, unpaired t-test versus control) (hepatocyte cell nuclei) | duration of elevated blood ketones (starting at 30 min) [6] [h] | also measured
CC(=O)CC(=O)OCCC(C)OC(=O)CC(C)=O (centres unmarked) [KE, R,S-1,3-butanediol acetoacetate diester] | statistically significant reduction in liver weight | reductions in glucose levels began at 30 minutes after treatment through 4 hours | continued the trend | little change | further reduced weight gains compared to BD treatment | evident | 141 | 83 | trend for greater number of RBCs and capillaries | 107.80^a | 0.002 | 8 | blood glucose levels, week 0 ([2]; 5 g/kg gavage, FIG. 4(A)): reduction in glucose levels by 1 hour after treatment; blood glucose levels, week 2 ([2]; 5 g/kg gavage, FIG. 5(A)): enhanced reduction in glucose; blood glucose levels, week 3 ([2]; 5 g/kg gavage, FIG. 5(B)): moderate reductions at 4 hours after treatment; blood glucose levels, week 4 ([2]; 5 g/kg gavage, FIG. 6): reduced glucose levels through 4 hours after treatment; alpha-ketoglutarate, metabolite ratio relative to a standard diet (SD) alone ([4]; 5 g/kg, 28 days, blood serum): 1.98^a; citrate, metabolite ratio relative to a standard diet (SD) alone ([4]; 5 g/kg, 28 days, blood serum): 1.99^a; fumarate, metabolite ratio relative to a standard diet (SD) alone ([4]; 5 g/kg, 28 days, blood serum): 1.92^a; malate, metabolite ratio relative to a standard diet (SD) alone ([4]; 5 g/kg, 28 days, blood serum): 2.03^a; succinate, metabolite ratio relative to a standard diet (SD) alone ([4]; 5 g/kg, 28 days, blood serum): 1.25; brain ketone levels, elevation with respect to controls ([4]; 28-day treatment, hippocampus, FIG. 16): > 2 fold; serum ketone levels, elevation with respect to controls ([4]; 28-day treatment, serum, FIG. 15): > 15 fold
C[C@H](O)CCO [BD, R,S-1,3-butanediol] | not a significant change in liver weight | did not appear to drastically affect glucose levels | non-significant reduction | mildly elevated | modestly decreased body weight increases | the most prevalence of fat deposition | 120 | 70 | trend for greater number of RBCs and capillaries | 93.56 | 0.585 | 8 | non-liver organ weight ([1]; week 4 harvested organs (brain, lungs, kidneys, spleen, heart)): no significant change in non-liver organ weight; fat deposits in liver sections (hepatocyte cell nuclei; listed as BE): evident; ketone bodies, peak at 4 hours ([6]; 5 g/kg gavage, FIG. 1(A), week 0): 1.0 mM/L; ketone bodies, initial peak at 30 minutes [6, 7]: around 0.8 mM/L; ketone bodies, second peak at 8 hours [6, 7]: around 0.8 mM/L; time of ketone body peak after treatment ([6]; 5 g/kg intragastric gavage daily, overall trend): 30 min
